# Results published in US6787318B1, “Assay for evaluating the therapeutic effectiveness of agents in reducing Alzheimer's disease pathology” (Roskamp Research Institute, LLC, priority 1999, dated 2004).
# Entries after “also recorded” stand apart in the source; their conditions may differ.
# Tests used:
# CD40 [1] = test: CD40 expression in primary cultured microglia; assay type: cell-based, mice; details: microglia from control littermates exposed to exogenous peptide, vs Aβ40-1 or sAPPα-695
# CD40 [2] = test: CD40 cell ELISA on cultured HAEC; assay type: cell-based, human; details: Aβ 50 nM to 10,000 nM; IFN-γ 5 to 500 U/mL; 48 hours
# Description: To determine if CD40 expression on cultured HAEC was IFN-γ or Aβ dose-dependent, CD40 cell ELISA assays were performed according to published procedures. Briefly, cultured HAEC were plated at 2×10^4 cells/well in flat-bottom, 96-well tissue culture plates (Nunc-Immuno™ Plate, Denmark). […] Other HAEC were treated with a dose range (5 U/mL to 500 U/mL) of IFN-γ. […] Forty-eight hours post-treatment, plates were fixed overnight at 4° C. in 1% paraformaldehyde diluted in 1×PBS, washed three times with wash buffer (0.5% Tween 20 in 1×PBS), and subsequently incubated with […] of blocking buffer (10% fetal bovine serum in wash buffer) for one hour at 37° C. Cells were then treated with purified anti-human CD40 antibody ([…], PharMingen, Los Angeles, Calif.) in […] of blocking buffer for one hour at 37° C. Plates were washed four times with wash buffer. Biotinylated anti-mouse IgG1 (PharMingen, Los Angeles, Calif.; 1:2,000 dilution in blocking buffer, […]) was added and incubated for one hour at 37° C., followed by the addition of […] of a 1:3,000 dilution of HRP-Streptavidin (ZYMED, San Francisco, Calif.) for thirty minutes at 37° C. Plates were washed 4× with wash buffer and developed for twenty minutes at room temperature using the 3, 3′, 5, 5′-tetramethylbenzidine (TMB) one-step substrate system (DAKO, Carpinteria, Calif.) followed by the addition of 100 μL/well of 2N H2SO4 to stop the reaction. Absorbance was measured at 450 nm using a microplate spectrophotometer (SPECTRAmax 250, Molecular Devices, Sunnyvale, Calif.).
# TNF-α [3] = test: TNF-α release from cultured microglia, TNF-α ELISA; assay type: cell-based, mice; details: 500 nM, primary cultured microglia
# CD40 [4] = test: CD40 expression in Aβ-treated N9 and N60 microglial cells, flow cytometry; assay type: cell-based, murine
# Source text: Mononuclear cells from AD patients secrete markedly higher levels of IFN-γ compared to age-matched controls (18).
# TNF-α [5] = details: high doses, literature (Meda et al.); cited from earlier work
# [6] = test system: primary cultured cortical neurons; test: Primary cultured microglia-mediated neuronal cell injury (micrographs, 51Cr release, LDH release); assay type: cell-based, mice; details: primary cultured microglia with cortical neurons
# Source text: CD45 positive cells (brown) are microglia, while neurofilament L-staining cells (red) are neurons. […] Results shown are from one of three independent experiments with similar results; FIG. 2E is a graph showing primary cultured microglia-mediated neuronal cell injury as evidenced by ^51Cr release. Data are reported as mean ^51Cr release values±1 SEM and n=9 for each condition presented. […] N=9 for each condition presented.
# Having shown that Aβ peptides activate microglia through the CD40 pathway, it was then investigated whether activation of Aβ-pretreated microglia by ligation of CD40 could mediate neuronal cell injury (23,24).
# cortical neurons = test: Cortical neurons incubated with treated N9 microglia, photomicrographs; assay type: cell-based, murine; details: Aβ1-42 250 nM, CD40L 0.5 μg/ml
# IFN-γ = IFN-γ secretion from HAEC, ELISA; assay type: cell-based, human; details: 24 hours
# Description: The assay for either IL-1β or IFN-γ was performed in strict accordance with the manufacturer's instructions for the respective assay kits.
# Activation of CD40 signalling can be achieved by stimulation with either CD40L or certain anti-CD40 mAbs. Since synthetic CD40L is not commercially available, one of the anti-CD40 mAbs (clone 3/23), which has been reported to activate CD40 signalling, was used to mimic the effect of interaction of CD40-CD40L. All Aβ-treated cells were incubated with 1 μg/ml anti-CD40 mAb […]) for four hours followed by CELISA.
# The resulting cell culture media were assayed for IL-1β or IFN-γ using ELISA. […] The lowest effective concentration was determined to be 100 nM for IFN-γ ([…]). The lowest effective concentration was determined to be 100 nM for IFN-γ (p<0.01) and 1 μM for IL-1β (p<0.01).
substance,measurement,setting,value
"Aβ1-42: amyloid β peptide 1-42, freshly solubilized",CD40 expression in primary cultured microglia,CD40 [1],CD40 expression is increased
same,dose dependence of endothelial CD40,CD40 [2],marked increase in endothelial CD40 which is dose-dependent
same,"TNF-α release, peptide alone",TNF-α [3],does not induce TNF-α release
same,CD40 expression on cultured microglial cells,"CD40 [4]; 250 nM freshly solubilized peptide, N9 and N60 cells, vs control peptide or Aβ-free",significantly induce CD40 expression
same,dose dependence of microglial CD40 expression,"CD40 [4]; from 50 to 1250 nM, N9 cells",induces microglial CD40 expression in a dose-dependent manner; also recorded: induced microglial CD40 expression in a dose dependent manner
same,dose able to produce increased TNF-α production in microglial cells,TNF-α [5],> 11 µM
same,neuronal degeneration / injury in micrographs,[6],not detectable
same,change in cortical neurons,cortical neurons,no change in cortical neurons
same,lowest effective concentration for IFN-γ secretion,IFN-γ,100 nM
same,"IFN-γ secretion, dose dependence",IFN-γ; increasing concentrations,increases the secretion of IL-1β and IFN-γ in a dose-dependent manner
